This is an account of results in PubChem BioAssay (NCI).

Test systems include EKVX NSCLC; OVCAR-3 ovarian; SNB-19 CNS; A549 NSCLC; SR leukemia; M14 melanoma; OVCAR-5 ovarian; OVCAR-8 ovarian; RPMI-8226 leukemia; MDA-MB-231 breast; HOP-92 NSCLC.
Assay in all cases: NCI anticancer screen, dose series, 48 h

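Assay format: 96-well plates, 48-hour exposure. Here, GI50 denotes the concentration required for 50% inhibition of growth. TGI: total growth inhibition.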

Take `O=C1OC(c2ccccc2)(c2ccccc2)CC1CN1CCOCC1` (stereo not drawn): the TGI is more than 100 µM in the assay with EKVX NSCLC; 28.9 µM with OVCAR-3 ovarian; more than 100 µM in the assay with SNB-19 CNS; 24.5 µM with A549 NSCLC; 8.43 µM with SR leukemia; 31.4 µM in the assay on M14 melanoma. In addition, the TGI was 67.5 µM in the assay with OVCAR-5 ovarian and more than 100 µM with OVCAR-8 ovarian.
For `COc1ccccc1NC(=S)Nc1cccc(C)n1`, the TGI in the assay with EKVX NSCLC, in the assay with RPMI-8226 leukemia, with OVCAR-3 ovarian, with SNB-19 CNS, in the assay on A549 NSCLC and in the assay on SR leukemia was more than 100 µM each time. Moreover, the TGI in the assay on M14 melanoma, with OVCAR-5 ovarian and in the assay on OVCAR-8 ovarian was more than 100 µM in each case.
In the case of `C#CCOC(=O)C(N)CS` (stereo not drawn), the TGI in the assay on EKVX NSCLC, in the assay with MDA-MB-231 breast, with RPMI-8226 leukemia, in the assay on OVCAR-3 ovarian, in the assay on A549 NSCLC and in the assay on HOP-92 NSCLC was more than 100 µM throughout. The TGI with M14 melanoma, in the assay on OVCAR-5 ovarian and in the assay on OVCAR-8 ovarian was more than 100 µM throughout.
Regarding `NC(=Nc1ccc(Cl)c(Cl)c1)c1ccccc1N`, the TGI was more than 100 µM with EKVX NSCLC; more than 100 µM with MDA-MB-231 breast; 39.3 µM in the assay on RPMI-8226 leukemia; more than 100 µM in the assay with OVCAR-3 ovarian; more than 100 µM in the assay on SNB-19 CNS; more than 100 µM with A549 NSCLC. For the same molecule, the TGI is 8.47 µM in the assay on HOP-92 NSCLC, 41.4 µM in the assay on M14 melanoma, more than 100 µM with OVCAR-5 ovarian and more than 100 µM with OVCAR-8 ovarian.
As to `CCOC(=O)C1=C(C)C2C3C(=O)NC(=O)C3C1(C)C1C(=O)NC(=O)C21` (stereo not drawn), the TGI with EKVX NSCLC, in the assay with RPMI-8226 leukemia, in the assay on OVCAR-3 ovarian, in the assay with SNB-19 CNS, in the assay with A549 NSCLC and with HOP-92 NSCLC was more than 100 µM each time. Besides, the TGI in the assay on M14 melanoma and in the assay with OVCAR-8 ovarian was more than 100 µM in each case.
In the case of `O=C(/C=C\c1cccc2ccccc12)c1ccc(Br)cc1`, the TGI was 52.1 µM in the assay with EKVX NSCLC; 45.9 µM in the assay on RPMI-8226 leukemia; 34.4 µM with OVCAR-3 ovarian; 61.1 µM in the assay with SNB-19 CNS; more than 100 µM with A549 NSCLC; 85.6 µM in the assay on HOP-92 NSCLC. Also, the TGI is 32 µM with M14 melanoma, 47.4 µM in the assay with OVCAR-5 ovarian and 33 µM with OVCAR-8 ovarian.
As for `C=CCN1C(=O)N/C(=C\c2ccc(Cl)cc2)C1=O`, the TGI in the assay with EKVX NSCLC, in the assay on MDA-MB-231 breast, with RPMI-8226 leukemia, in the assay with OVCAR-3 ovarian, in the assay on SNB-19 CNS and in the assay on A549 NSCLC was more than 100 µM in each case. In addition, the TGI in the assay on HOP-92 NSCLC, in the assay with M14 melanoma, in the assay on OVCAR-5 ovarian and with OVCAR-8 ovarian was more than 100 µM throughout.
As to `N=c1oc2cc(O)c(O)cc2cc1C(N)=O`, the TGI in the assay with EKVX NSCLC, in the assay with RPMI-8226 leukemia, with OVCAR-3 ovarian, in the assay with SNB-19 CNS, in the assay with A549 NSCLC and in the assay on HOP-92 NSCLC was more than 100 µM each time. For the same molecule, the TGI in the assay on M14 melanoma, in the assay on OVCAR-5 ovarian and in the assay on OVCAR-8 ovarian was more than 100 µM each time.
With `CC(=O)/C(=C/N1C(=O)CC(=O)NC1=S)C(=O)Nc1ccccc1C`, the TGI with EKVX NSCLC is more than 100 µM; in the assay on MDA-MB-231 breast, more than 100 µM; with OVCAR-3 ovarian, 96.4 µM; in the assay with SNB-19 CNS it was more than 100 µM; in the assay on A549 NSCLC, more than 100 µM; in the assay with HOP-92 NSCLC, more than 100 µM. Besides, the TGI in the assay on M14 melanoma, in the assay on OVCAR-5 ovarian and in the assay on OVCAR-8 ovarian was more than 100 µM throughout.
With `CO[C@H]1C[C@@H]2CC[C@@H](C)[C@@](O)(O2)C(=O)C(=O)N2CCCC[C@H]2C(=O)O[C@H]([C@H](C)C[C@@H]2CC[C@@H](OC(=O)C(C)(CO)CO)[C@H](OC)C2)CC(=O)[C@H](C)/C=C(\C)[C@@H](O)[C@@H](OC)C(=O)[C@H](C)C[C@H](C)/C=C/C=C/C=C/1C`, the TGI in the assay on EKVX NSCLC was more than 52.2 µM; in the assay with MDA-MB-231 breast, 31.2 µM; in the assay on RPMI-8226 leukemia, more than 29.3 µM; in the assay with OVCAR-3 ovarian it was more than 100 µM; in the assay with SNB-19 CNS it was more than 100 µM; in the assay on A549 NSCLC, more than 100 µM. The TGI with M14 melanoma is more than 100 µM; in the assay on OVCAR-5 ovarian it was more than 100 µM; with OVCAR-8 ovarian it was more than 86.4 µM. The GI50 is 2.62 µM with MDA-MB-231 breast; less than 0.0247 µM with RPMI-8226 leukemia; 1.78 µM with OVCAR-3 ovarian; 0.95 µM with A549 NSCLC; 1.58 µM in the assay on HOP-92 NSCLC; 16 µM in the assay with M14 melanoma. Besides, the GI50 in the assay on OVCAR-5 ovarian was more than 59.1 µM; in the assay on OVCAR-8 ovarian, less than 0.0143 µM.
As for `Nc1ccccc1C(=O)NNC(=O)c1ccccc1N`, the TGI with EKVX NSCLC, in the assay on MDA-MB-231 breast, in the assay with RPMI-8226 leukemia, in the assay on OVCAR-3 ovarian, with SNB-19 CNS and with A549 NSCLC was more than 100 µM each time. Further, the TGI with HOP-92 NSCLC, in the assay on M14 melanoma, with OVCAR-5 ovarian and in the assay with OVCAR-8 ovarian was more than 100 µM throughout.
`COc1ccc2c(c1)CC1NC2Cc2ccccc21` (stereo not drawn): the TGI in the assay on EKVX NSCLC, in the assay with RPMI-8226 leukemia, in the assay with OVCAR-3 ovarian, with A549 NSCLC, in the assay on M14 melanoma and with OVCAR-5 ovarian was more than 100 µM in each case. In addition, the TGI in the assay on OVCAR-8 ovarian was more than 100 µM.
Turning to `CCOC(=O)C1C(C(C)C)C2(C#N)C(=N)OC1(C)C2(C#N)C#N` (stereo not drawn), the TGI in the assay on EKVX NSCLC, with MDA-MB-231 breast, in the assay with RPMI-8226 leukemia, in the assay with SNB-19 CNS, with A549 NSCLC and in the assay on HOP-92 NSCLC was more than 100 µM each time. Further, the TGI in the assay with M14 melanoma, in the assay with OVCAR-5 ovarian and in the assay on OVCAR-8 ovarian was more than 100 µM each time.
In the case of `Cc1nc(Nc2ccccc2)sc1C(=O)NNC(N)=O`, the TGI in the assay on EKVX NSCLC, in the assay on RPMI-8226 leukemia, in the assay with OVCAR-3 ovarian, in the assay on SNB-19 CNS, in the assay with A549 NSCLC and in the assay on HOP-92 NSCLC was more than 100 µM throughout. Also, the TGI with M14 melanoma, with OVCAR-5 ovarian and with OVCAR-8 ovarian was more than 100 µM throughout.
